“And” between values parts separate entries of the source, which are not always exact repeats. Equal values may be shown once.
What was measured:
β-glucosidase = β-glucosidase cleavage of glucose-protected compounds (UV-Vis, HPLC, Km); assay type: biochemical, almonds; conditions: 37° C.
Procedure: Absorption spectra of compounds 1-8 were taken on a Perkin-Elmer Lambda 25 UV-visible spectrophotometer. To a 1.0 mL solution at 0.05-0.06 mM concentration in HEPES buffer (50 mM, pH 7.5) was added β-glucosidase (16 U for compounds 2, 4, and 6, and 100 U for compound 8). Spectra were monitored over time either at room temperature for compounds 1-7 or at 37° C. for compound 8.
To a 1.0 mL solution of 8 in HEPES buffer at 25 μM, 50 μM, 75 μM, 100 μM, and 200 μM was added 100 U of β-glucosidase. Spectra were monitored over 4 h at 37° C. The concentration of product formed, 1,2-HOPO-2 (7), was determined using the extinction coefficient for 7 calculated at 346 nm (4279±372 M-1 cm-1) and was plotted versus time (min). The initial velocity (ν) of each reaction was determined analyzing the linear slope of the first 50 min. The Km value was calculated from the Lineweaver-Burk plot (1/ν vs. 1/[8]) where −1/Km equals the x-intercept (FIG. 10).
Analytical HPLC was performed on a HP Series 1050 system equipped with a Vydac® C18 reverse phase column (218 TP, 250×4.6 mm, 5 μm). […] Retention times of compounds 1-8 were determined under identical HPLC conditions prior to evaluation of glucose cleavage of the protected compounds. […]

[1] = target: T1, MMP-8 (catalytic domain, human, recombinant) (Homo sapiens, UniProt P22894); experiment: MMP-8 fluorescence-based inhibition assay with and without β-glucosidase; assay type: biochemical
T1 construct: MMP-8 (catalytic domain, human, recombinant); purchased BIOMOL International
Procedure: MMP-9 (catalytic domain, human, recombinant), MMP-8 (catalytic domain, human, recombinant), and the assay kit were purchased from BIOMOL International. The assays were carried out according to the procedure provided with the kit. MMP activity was measured in 96-well plates using a Bio-Tek Flx 800 fluorescent plate reader. The ZBGs and their protected analogs were dissolved in DMSO and diluted in HEPES buffer (50 mM, pH 7.5) to a concentration of 10 mM for 1-2, 40 mM for 3-4, and 1.25 mM for 5-6. Each well contained 20 μL, of MMP-9 (0.45 U/mL), inhibitor (10 μL, of 1-6), 5 μL, of β-glucosidase (1 U/μL) when used, and buffer for a total volume of 99 μL. These were incubated for 1 h at 37° C. […] The reaction was initiated by the addition of 1 μL (400 μM) of the fluorescent substrate (Mca-Pro-Leu-Gly-Leu-Dpa-Ala-Arg-NH2 where Mca=(7-methoxycoumarin-4-yl)-acetyl and Dpa=N-3-(2,4-dinitrophenyl)-L-α-β-diaminopropionyl)) and kinetic activity was measured every minute for 30 min with excitation and emission wavelengths at 335 nm and 405 nm, respectively. Enzyme activity with inhibitor was calculated with respect to the control experiment (no inhibitor present). […]
IC50 values were obtained for compounds 1-8 against MMP-9 and for compounds 7 and 8 against MMP-8. […] Enzyme activity with inhibitor was calculated with respect to the control experiment (no inhibitor present). […]

T1 sequence (P22894 100-262 limits assumed): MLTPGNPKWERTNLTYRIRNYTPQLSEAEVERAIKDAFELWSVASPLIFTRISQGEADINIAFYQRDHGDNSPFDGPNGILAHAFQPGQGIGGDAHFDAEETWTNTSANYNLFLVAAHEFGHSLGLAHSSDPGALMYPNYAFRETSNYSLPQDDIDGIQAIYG

- Km (β-glucosidase; 100 U β-glucosidase, Lineweaver-Burk plot): ~210 µM and 210 µM
- time required for complete conversion of 8 to 7 (β-glucosidase; β-glucosidase): ~4 h
- inhibition at 0.15 µM ([1]; 150 nM, read-out: inhibition of MMP-8 after activation with β-glucosidase): 33%
- increase in activity upon enzymatic activation ([1]; MMP-8, with vs without β-glucosidase): > 1000 fold
Structure (SMILES): O=C(NCc1ccc(-c2ccccc2)cc1)c1cccc(=O)n1O[C@@H]1O[C@H](CO)[C@@H](O)[C@H](O)[C@H]1O [Compound 8, N-(Biphenyl-4-ylmethyl)-6-oxo-1-(β-D-glucopyranosyloxy)-1,6-dihydropyridine-2-carboxamide]
